According to patent publication US20110201499A1, “Method of Improving Plant Yield of Soybeans by Treatment with Herbicides” (priority 2010, published 2011):

System: Soybean (FG72 trait)
Test: in-field research trial of herbicidal treatment effect on soybean yield
Assay type: in vivo
Conditions: isoxaflutole 35 g ai/ha soil treatment pre-emergence, then one application of glyphosate 1060 g ai/ha plus ammonium sulfate 2850 g ai/ha; weed free check = 100%; averaged across four replications; moisture standardized; Fithian, Ill.
Description: Soybean seed was secured for an in-field research trial. The soybean seed is genetically modified to be tolerant to applications of HPPD (4-hydroxyphenyl-pyruvate-dioxygenase) inhibiting herbicides (example: BALANCE PRO or isoxaflutole) and glyphosate (ROUNDUP ORIGINAL MAX). The trait is known as FG72.
The site was conventionally tilled and free of weeds at the time of planting. The soybean seed was planted in 30″ rows on Jun. 18, 2008. Broadcast spray treatments of a first herbicidal treatment composition comprising isoxaflutole were applied using a tractor mounted sprayer on Jun. 20, 2008. All areas of the field, including a weed-free check (control) that was not treated with isoxaflutole, were additionally treated on Jun. 20, 2008, with PURSUIT PLUS herbicide, a combination of 2.24% imazethapyr and 30.24% pendimethalin, available from BASF. The application was made prior to soybean and weed emergence.
To avoid any interference of weed effects on yield in the trial, the entire trial site was kept weed free for the entire growing season. […]
The trial was evaluated for herbicidal treatment effect on yield. […] Data was entered into and analyzed with ARM computer software. […] Treatment differences were determined using least significant differences (LSD, P=0.05).

For `CS(=O)(=O)c1cc(C(F)(F)F)ccc1C(=O)c1cnoc1C1CC1` [isoxaflutole, 5-cyclopropyl-4-(2-methylsulfonyl-4-trifluoromethylbenzoyl) isoxazole], the “soybean seed yield as percent of the weed free check” value was 108.5%.
